Assay results as given in PMC6327044, “A chemical biology screen identifies a vulnerability of neuroendocrine cancer cells to SQLE inhibition” (Nature Communications, 2019).

Key:
Assay in all cases: cells
Parameters in all cases: species or system panel of 482 human cancer cell lines; ATPLite luminescence growth inhibition after treatment, nine-point dilution curve, 482 cancer cell lines, 384-well
Conditions in all cases: 72 h, recommended growth medium
SNU175_LARGE_INTESTINE = system: SNU175_LARGE_INTESTINE
How it was run: (§1)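 Growth inhibition was measured across a panel of 482 cancer cell lines. Cells were plated at 500 cells per well in recommended growth media in black, tissue culture treated 384-well plates, centrifuged to equilibrate, and incubated 24 h before dosing. Compounds were tested as nine-point dilution curves for 72 h, with viability read by ATPLite luminescence relative to DMSO-treated controls.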

[1] = system: U2932_HAEMATOPOIETIC_AND_LYMPHOID_TISSUE
How it was run: as §1

[2] = system: TMD8_HAEMATOPOIETIC_AND_LYMPHOID_TISSUE
How it was run: as §1

CHP126_AUTONOMIC_GANGLIA = system: CHP126_AUTONOMIC_GANGLIA
How it was run: as §1

EVSAT_BREAST = system: EVSAT_BREAST
How it was run: as §1

KURAMOCHI_OVARY = system: KURAMOCHI_OVARY
How it was run: as §1

[3] = system: SNU1066_UPPER_AERODIGESTIVE_TRACT
How it was run: as §1

[4] = system: AMO1_HAEMATOPOIETIC_AND_LYMPHOID_TISSUE
How it was run: as §1

GSS_STOMACH = system: GSS_STOMACH
How it was run: as §1

JHH5_LIVER = system: JHH5_LIVER
How it was run: as §1

HT115_LARGE_INTESTINE = system: HT115_LARGE_INTESTINE
How it was run: as §1

SKNDZ_AUTONOMIC_GANGLIA = system: SKNDZ_AUTONOMIC_GANGLIA
How it was run: as §1

LU139_LUNG = system: LU139_LUNG
How it was run: as §1

`CCN(C/C=C/C#CC(C)(C)C)Cc1cccc(OCc2cc(-c3ccsc3)cs2)c1` [NB-598] gave a GI50 (SNU175_LARGE_INTESTINE) of 243 nM, a GI50 [1] of 1290 nM and a GI50 [2] of 131 nM. The GI50 (CHP126_AUTONOMIC_GANGLIA) was 38.2 nM, the GI50 (EVSAT_BREAST) was 32400 nM and the GI50 (KURAMOCHI_OVARY) was 52000 nM. For the same compound, the GI50 [3] was 121000 nM, the GI50 [4] was 32 nM and the GI50 (GSS_STOMACH) was 12300 nM. The GI50 (JHH5_LIVER) was 42700 nM, the GI50 (HT115_LARGE_INTESTINE) was 2720 nM and the GI50 (SKNDZ_AUTONOMIC_GANGLIA) was 12 nM. It also gave a GI50 (LU139_LUNG) of 32.1 nM.
